# Reference: patent US20250127905A1, “GLUTARIMIDE COMPOUND AND USE THEREOF” (MEDSHINE DISCOVERY INC., priority 2021, published 2025)
# Where a name gives a salt, the structure may show the parent alone.
# Columns and labels:
# [1] = test system: sodium urate-induced acute gouty arthritis; experiment: Sodium urate-induced acute gouty arthritis in rats; format: in vivo, SD rats
# Description: It is to evaluate the preventive and therapeutic effect of compounds on sodium urate-induced acute gouty arthritis in rats. Animals: 5-week-old male SD rats; source: Zhejiang Vital River Laboratory Animal Technology Co., Ltd. Experimental grouping: After 3 days of acclimatization, all animals were measured for basal hindfoot volume, arthritis index score, and bilateral hindfoot pain threshold. 50 animals were selected and divided equally into 5 groups with 10 animals each based on body weight, hindfoot volume, arthritis index, and bilateral hindfoot pain threshold. The day of initiation of administration was recorded as D-1, and intragastric administration was performed twice a day for 6 consecutive days (D-1 to […]). 1 hour after the first administration at D0 (1 day after administration), except for the blank control group, the other rats were anesthetized with isoflurane, and 50 μL (50 mg/mL) of sodium urate solution was injected into the joint cavity for modeling at the lateral posterior side of the right ankle joint, which was used as a puncture point. Joint swelling would peak after 8 to 12 hours (lasting about 72 hours). Foot volumes of the animals were measured and arthritis index (AI) scoring was performed before and 2, 5, 8, 11, 24, 48, 72, and 96 hours after the onset of inflammation; pain thresholds were measured using a bipedal balance pain tester before and 2, 24, 48, 72, and 96 hours after the onset of inflammation. Photographs of critical swelling were taken at the peak of joint swelling (8 to 12 hours) in each group of animals and retained. Foot volume measurement: Before measurement, a line was drawn at the ankle joint of a rat with a marker to mark the position, and the instrument was added with clean water and zeroed to be ready for measurement. The hind limbs of the rat were placed in the water so that the marked line at the ankle joint was on the surface of the liquid, at which time the foot pedal was pressed to read the foot volume of the rat. At the end of the measurement, the foot pedal was pressed again for zeroing to be ready for the measurement of the next rat. Arthritis index (AI): The foot volume was measured while the swelling of the modeled foot was scored. Arthritis index scoring criteria: [table] Experimental data were expressed as Mean±SD; data were statistically analyzed using IBM SPSS Statistics 21, and p<0.05 was considered a significant difference between the two groups.
# [2] = Pharmacokinetic evaluation in cynomolgus monkeys; format: in vivo
# Description: In this study, male cynomolgus monkeys were selected as test animals, and LC/MS/MS method was used to quantify plasma concentrations of the test compound intravenously injected or intragastrically administered to cynomolgus monkeys at different time points, so as to evaluate the pharmacokinetic profile of the test drug in cynomolgus monkeys.
# Cynomolgus monkeys (male, 2 to 5 kg, Hainan Jingang Biotech Co., Ltd.).
# A clarified solution of the test compound was slowly injected into cynomolgus monkeys (feeding) via the peripheral vein (vehicle: 5% DMSO/10% Solutol/85% H2O), or intragastrically administered into cynomolgus monkeys (feeding). For intravenous injection, 0.5 mL of blood was collected from the peripheral vein at 0 h (pre-administration) and 0.083 h, 0.25 h, 0.5 h, 1 h, 2 h, 4 h, 6 h, 8 h, and 24 h after administration, placed in an anticoagulant tube added with EDTA-2K, and centrifuged at 3200 g for 10 minutes at 2 to 8° C. to separate the supernatant. For oral administration, 0.5 mL of blood was collected from the peripheral vein at 0 h (pre-administration) and 0.083 h, 0.25 h, 0.5 h, 1 h, 2 h, 4 h, 6 h, 8 h, and 24 h after administration, placed in an anticoagulant tube added with EDTA-2K, and centrifuged at 3200 g for 10 minutes at 2 to 8° C. to separate the supernatant. Plasma concentrations were determined by LC-MS/MS method, and relevant pharmacokinetic parameters were calculated using Phoenix WinNonlin 6.3 pharmacokinetic software with non-compartmental model linear-log trapezoidal method.
# [3] = 30 mg/kg intragastric twice a day, time 0 h
# [4] = 30 mg/kg intragastric twice a day, time 2 h
# [5] = 30 mg/kg intragastric twice a day, time 5 h
# [6] = 30 mg/kg intragastric twice a day, time 8 h
# [7] = 30 mg/kg intragastric twice a day, time 11 h
# [8] = 30 mg/kg intragastric twice a day, time 24 h
# [9] = 30 mg/kg intragastric twice a day, time 48 h
# [10] = 30 mg/kg intragastric twice a day, time 72 h
# [11] = 30 mg/kg intragastric twice a day, time 96 h
# [12] = 100 mg/kg intragastric twice a day, time 0 h
# [13] = 100 mg/kg intragastric twice a day, time 2 h
# [14] = 100 mg/kg intragastric twice a day, time 5 h
# [15] = 100 mg/kg intragastric twice a day, time 8 h
# [16] = 100 mg/kg intragastric twice a day, time 11 h
# [17] = 100 mg/kg intragastric twice a day, time 24 h
# [18] = 100 mg/kg intragastric twice a day, time 48 h
# [19] = 100 mg/kg intragastric twice a day, time 72 h
# [20] = 100 mg/kg intragastric twice a day, time 96 h
# [21] = 200 mg/kg intragastric twice a day, time 0 h
# [22] = 200 mg/kg intragastric twice a day, time 2 h
# [23] = 200 mg/kg intragastric twice a day, time 5 h
# [24] = 200 mg/kg intragastric twice a day, time 8 h
# [25] = 200 mg/kg intragastric twice a day, time 11 h
# [26] = 200 mg/kg intragastric twice a day, time 24 h
# [27] = 200 mg/kg intragastric twice a day, time 48 h
# [28] = 200 mg/kg intragastric twice a day, time 72 h
# [29] = 200 mg/kg intragastric twice a day, time 96 h
# [30] = Intragastric administration (5 mg/kg)
structure (smiles),measurement,setting,value
O=C1CCC(c2noc3c(NC(=O)CN4CCN(C[C@H]5CC[C@H](n6cc(NC(=O)c7cnn8ccc(N9C[C@H]%10C[C@@H]9CO%10)nc78)c(C(F)F)n6)CC5)CC4)cccc23)C(=O)N1 (some centres unmarked) [Hydrochloride of WX015],Arthritis index,[1]; [3],0
same,Foot volume,[1]; [3],3.63 mL
same,Hindfoot weight-bearing difference,[1]; [3],0.69 g
same,Arthritis index,[1]; [4],1
same,Foot volume,[1]; [4],3.88 mL
same,Hindfoot weight-bearing difference,[1]; [4],19.09 g
same,Arthritis index,[1]; [5],1
same,Foot volume,[1]; [5],3.9 mL
same,Arthritis index,[1]; [6],1
same,Foot volume,[1]; [6],3.9 mL
same,Arthritis index,[1]; [7],1
same,Foot volume,[1]; [7],3.92 mL
same,Arthritis index,[1]; [8],0.9
same,Foot volume,[1]; [8],3.9 mL
same,Hindfoot weight-bearing difference,[1]; [8],13.22 g
same,Arthritis index,[1]; [9],0.5
same,Foot volume,[1]; [9],3.91 mL
same,Hindfoot weight-bearing difference,[1]; [9],6.6 g
same,Arthritis index,[1]; [10],0.3
same,Foot volume,[1]; [10],3.94 mL
same,Hindfoot weight-bearing difference,[1]; [10],4.3 g
same,Arthritis index,[1]; [11],0.1
same,Foot volume,[1]; [11],3.96 mL
same,Hindfoot weight-bearing difference,[1]; [11],2.1 g
same,Arthritis index,[1]; [12],0
same,Foot volume,[1]; [12],3.63 mL
same,Hindfoot weight-bearing difference,[1]; [12],0.12 g
same,Arthritis index,[1]; [13],1
same,Foot volume,[1]; [13],3.85 mL
same,Hindfoot weight-bearing difference,[1]; [13],16.38 g
same,Arthritis index,[1]; [14],1
same,Foot volume,[1]; [14],3.88 mL
same,Arthritis index,[1]; [15],1
same,Foot volume,[1]; [15],3.9 mL
same,Arthritis index,[1]; [16],1
same,Foot volume,[1]; [16],3.91 mL
same,Arthritis index,[1]; [17],0.6
same,Foot volume,[1]; [17],3.88 mL
same,Hindfoot weight-bearing difference,[1]; [17],12.2 g
same,Arthritis index,[1]; [18],0.3
same,Foot volume,[1]; [18],3.9 mL
same,Hindfoot weight-bearing difference,[1]; [18],5.72 g
same,Arthritis index,[1]; [19],0.2
same,Foot volume,[1]; [19],3.93 mL
same,Hindfoot weight-bearing difference,[1]; [19],3 g
same,Arthritis index,[1]; [20],0
same,Foot volume,[1]; [20],3.95 mL
same,Hindfoot weight-bearing difference,[1]; [20],2.01 g
same,Arthritis index,[1]; [21],0
same,Foot volume,[1]; [21],3.62 mL
same,Hindfoot weight-bearing difference,[1]; [21],-0.23 g
same,Arthritis index,[1]; [22],1
same,Foot volume,[1]; [22],3.84 mL
same,Hindfoot weight-bearing difference,[1]; [22],14.81 g
same,Arthritis index,[1]; [23],1
same,Foot volume,[1]; [23],3.88 mL
same,Arthritis index,[1]; [24],1
same,Foot volume,[1]; [24],3.89 mL
same,Arthritis index,[1]; [25],1
same,Foot volume,[1]; [25],3.88 mL
same,Arthritis index,[1]; [26],0.5
same,Foot volume,[1]; [26],3.87 mL
same,Hindfoot weight-bearing difference,[1]; [26],11.32 g
same,Arthritis index,[1]; [27],0.2
same,Foot volume,[1]; [27],3.89 mL
same,Hindfoot weight-bearing difference,[1]; [27],3.91 g
same,Arthritis index,[1]; [28],0
same,Foot volume,[1]; [28],3.91 mL
same,Hindfoot weight-bearing difference,[1]; [28],2.1 g
same,Arthritis index,[1]; [29],0
same,Foot volume,[1]; [29],3.93 mL
same,Hindfoot weight-bearing difference,[1]; [29],1.94 g
same,Area under the drug-time curve (0-inf),[2]; [30],1.14 µM·h
same,Peak concentration,[2]; [30],0.14 µM
same,Time to peak concentration,[2]; [30],4.0 h
same,Area under the drug-time curve (0-inf),[2]; Intravenous injection (0.5 mg/kg),0.21 µM·h
same,clearance,"[2]; male, cynomolgus monkey, plasma, Intravenous injection (0.5 mg/kg)",48.5 mL/min/kg
same,Vd,"[2]; male, cynomolgus monkey, plasma, Intravenous injection (0.5 mg/kg), read-out: Apparent volume of distribution",8.83 L/kg
same,half-life,"[2]; male, cynomolgus monkey, plasma, Intravenous injection (0.5 mg/kg), read-out: Elimination half-life (converted)",2.33 h
same,bioavailability,"[2]; male, cynomolgus monkey, plasma, oral, IV 0.5 mg/kg, intragastric 5 mg/kg, read-out: Bioavailability F",55.5%
